Data set [1] has as its target T1, Phenylethanolamine N-methyltransferase (Bos taurus, UniProt P10938).
T1 sequence (P10938 whole entry): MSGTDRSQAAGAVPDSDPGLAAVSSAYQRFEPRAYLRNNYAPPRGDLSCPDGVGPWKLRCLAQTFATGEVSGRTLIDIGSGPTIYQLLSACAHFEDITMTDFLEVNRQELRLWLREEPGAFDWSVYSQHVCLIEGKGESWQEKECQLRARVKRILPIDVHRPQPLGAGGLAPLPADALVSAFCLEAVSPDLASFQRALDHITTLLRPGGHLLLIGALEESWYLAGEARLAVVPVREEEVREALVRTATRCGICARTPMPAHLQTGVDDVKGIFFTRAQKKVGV
Put plainly: (§1) Inhibitory activity against phenylethanolamine N-methyl-transferase.

Substrate in data set [2]: NCC(O)/C1=C/CCCCCC1
The experiment in a line: (§2) Substrate activity against phenylethanolamine N-methyl-transferase was tested.

Substrate in data set [3]: NCC(O)C1CC=CCC1
The data set is described as §2.

Substrate in data set [4]: NCC(O)C1CCCCC1
The data set is described as §2.

Substrate in data set [5]: NCC(O)C1=C/C=C\C=C/C=C\1
The data set is described as §2.

Substrate in data set [6]: NCC(O)C1=C/CCCC/C=C\1
Described as §2.

Substrate in data set [7]: NCC(O)/C1=C/CC/C=C\CC1
The description is as §2.

Substrate in data set [8]: NCC(O)C1CCCCCCC1
Described as §2.

Compound in data set [9]: NC[C@@H](O)c1ccccc1
Described as §1.

With `CCCCCC(C)=O`, in data set [1], the IC50 came to 669 µM.

Regarding `CCCCCCC=O` [HEPTANAL], the IC50 in data set [1] came out at 109 µM.

`C[Si](C)(C)OC1(C#N)CCCCC1`: the concentration for half-maximal inhibition (IC50) in [1] is above 1000 µM.

For `NCC(O)C1CCCCCCCCCC1` (stereo unspecified), the IC50 in [1] stood at 9 µM.

For `NCC(O)C1=C/C=C\C=C/C=C\1` (stereo unspecified), half-maximal inhibition in [1] (IC50) required 760 µM.

Consider `NCC1(O)CCCCCC1`, for which the IC50 in [1] is 510 µM. This IC50 and that of the molecule before are within 1.5-fold of each other.

`CCCCC(O)CN` (stereo unspecified): in data set [1], the half-inhibitory concentration (IC50) came to 345 µM.

`NCC1(O)CCCCCCCC1`: the concentration for half-maximal inhibition (IC50) in [1] worked out at 17 µM.

Molecule `C[Si](C)(C)OC1(C#N)CCCC1` gave an IC50 in [1] above 1000 µM.

`O=CC1CCCCCCCC1` [CYCLONONANECARBALDEHYDE]: in data set [1], the IC50 was 6 µM.

`NCC(O)C1CCCC1` (stereo unspecified) displayed an IC50 in data set [1] of 446 µM. Compared with the last molecule, the IC50 is about 74-fold higher.

In the case of `CCCCCCCC(O)CN` (stereo unspecified), the midpoint of inhibition in data set [1], the IC50, lay at 216 µM. Against the preceding molecule, the IC50 is about 2.1-fold lower.

On to `C[Si](C)(C)OC(C#N)C12CC3CC(CC(C3)C1)C2` (stereo unspecified), for which the 50% inhibitory concentration (IC50) in data set [1] worked out at 195 µM.

`CC(C)CC(O)CN` (stereo unspecified): the IC50 in data set [1] stood at 1000 µM.

The molecule `CC(C)CC=O` gave a half-maximal inhibitory concentration (IC50) in data set [1] of 1000 µM.

On to `NCC(O)C1=C/CCCC/C=C\1` (stereo unspecified), for which, in [1], the IC50 was 57 µM.

Consider `O=CC1CCC1` [CYCLOBUTANE CARBALDEHYDE], for which the IC50 in data set [1] is above 1000 µM.

For `CCCCCC=O` [HEXANAL], the half-maximal inhibitory concentration (IC50) in [1] came to 314 µM.

As for `O=C1CCCCCCCC1` [CYCLONONANONE], in data set [1], the concentration for half-maximal inhibition (IC50) came to 17 µM.

Turning to `C[Si](C)(C)OC1(C#N)CCCCCCC1`, the half-maximal inhibitory concentration (IC50) in data set [1] was 72 µM.

Take `CCC(C=O)CC`: inhibition in data set [1] was half-maximal at 545 µM (IC50).

On to `NCC1(O)CCCCC1`, for which, in data set [1], the IC50 is above 1000 µM.

As for `NCC1(O)CCCC1`, the IC50 in data set [1] was above 1000 µM.

In data set [1], `CCCCCCC(C)(C#N)O[Si](C)(C)C` (stereo unspecified) registered a half-maximal inhibitory concentration (IC50) of 664 µM.

`CCC(C)C(C)C(C#N)O[Si](C)(C)C` (stereo unspecified): inhibition in data set [1] was half-maximal at 403 µM (IC50).

`CCCCCCCC=O` [OCTANAL]: the IC50 in data set [1] was determined as 216 µM.

Molecule `NCC(O)/C1=C/CC/C=C\CC1` (stereo unspecified) showed an IC50 in data set [1] of 89 µM.

On to `NCC(O)C1CCCCCC1` (stereo unspecified), for which half-maximal inhibition in data set [1] (IC50) required 8 µM.

`NCC1(O)CCCCCCC1` gave a concentration for half-maximal inhibition (IC50) in [1] of 72 µM.

With `O=CC1CCCCCC1` [CYCLOHEPTANE CARBALDEHYDE], the IC50 in data set [1] is 8 µM.

`CCCCCCC(C)(O)CN` (stereo unspecified): the IC50 in data set [1] was 664 µM.

In data set [1], `CCCCCC(C)(O)CN` (stereo unspecified) showed an IC50 of 669 µM.

In data set [1], `CCCCCC(O)CN` (stereo unspecified) showed a concentration for half-maximal inhibition (IC50) of 314 µM.

`NCC(O)C12CC3CC(CC(C3)C1)C2` (stereo unspecified) yielded an IC50 in data set [1] of 195 µM. This IC50 is about 1.6-fold lower than that of the molecule before.

`NCC(O)C1CCC1` (stereo unspecified) registered an IC50 in data set [1] above 1000 µM.

In [1], `CCCCCCC(O)CN` (stereo unspecified) displayed a half-maximal inhibitory concentration (IC50) of 109 µM.

Consider `O=CC1CCCCCCCCCC1` [CYCLOUNDECANE CARBALDEHYDE], for which the IC50 in [1] came out at 9 µM. Compared with the last molecule, the IC50 is about 12-fold lower.

For the molecule `C[Si](C)(C)OC1(C#N)CCCCCCCC1`, in [1], the half-maximal inhibitory concentration (IC50) is 17 µM. This IC50 is about 1.9-fold higher than that of the molecule before.

The molecule `C[Si](C)(C)OC(C#N)C1CCCC1` (stereo unspecified) showed an IC50 in data set [1] of 446 µM. This IC50 lies about 26-fold higher than the previous one.

Turning to `CCC(C)C(C)C(O)CN` (stereo unspecified), in data set [1], the IC50 worked out at 403 µM. The IC50 values of the last two molecules are within 1.5-fold of each other.

Molecule `CC(C)CC(C#N)O[Si](C)(C)C` (stereo unspecified) registered an IC50 in data set [1] of 1000 µM. This IC50 is about 2.5-fold higher than that of the molecule before.

In [1], `NCC(O)C1CCCCCCC1` (stereo unspecified) had a concentration for half-maximal inhibition (IC50) of 7 µM. This IC50 lies about 140-fold lower than the previous one.

`NCC1(O)CCCCCCCCCC1`: it took 8 µM to reach half-maximal inhibition in data set [1] (IC50).

Regarding `O=C1CCCC1` [CYCLOPENTANONE], the 50% inhibitory concentration (IC50) in [1] is above 1000 µM.

With `NCC(O)C1CC=CCC1` (stereo unspecified), half-maximal inhibition in [1] (IC50) was put at 52 µM.

As for `C[Si](C)(C)OC(C#N)C1CCCCCCCCCC1` (stereo unspecified), half-maximal inhibition in data set [1] (IC50) was put at 9 µM. This IC50 is about 5.8-fold lower than that of the molecule before.

In turn, `CCCCCCC(C#N)O[Si](C)(C)C` (stereo unspecified) registered an IC50 in data set [1] of 109 µM.

`CCC(CC)C(C#N)O[Si](C)(C)C` (stereo unspecified) registered an IC50 in [1] of 545 µM.

In data set [1], `O=C1CCCCCCC1` [CYCLOOCTANONE] showed an IC50 of 72 µM.

Take `CCCCCCCC(C#N)O[Si](C)(C)C` (stereo unspecified): in data set [1], the IC50 was 216 µM.

In data set [1], `C[Si](C)(C)OC(C#N)C1CCCCCC1` (stereo unspecified) showed a half-inhibitory concentration (IC50) of 8 µM. This IC50 lies about 27-fold lower than the previous one.

In [1], `C[Si](C)(C)OC(C#N)C1CCC1` (stereo unspecified) showed an IC50 above 1000 µM.

As to `C[Si](C)(C)OC(C#N)C1CCCCCCCC1` (stereo unspecified), in data set [1], half-maximal inhibition (IC50) was put at 6 µM.

`O=C1CCCCC1` [CYCLOHEXANONE] yielded an IC50 in [1] above 1000 µM.

Turning to `CCCCC(C#N)O[Si](C)(C)C` (stereo unspecified), the IC50 in data set [1] turned out to be 345 µM.

As for `CCC(CC)C(O)CN` (stereo unspecified), in [1], 545 µM corresponded to half-maximal inhibition (IC50).

Consider `NCC(O)C1CCCCC1` (stereo unspecified), for which, in [1], half-maximal inhibition (IC50) was put at 14 µM.

With `O=C1CCCCCC1` [CYCLOHEPTANONE], the IC50 in [1] was 510 µM.

Take `NCC(O)/C1=C/CCCCCC1` (stereo unspecified): in [1], the IC50 came to 38 µM.

For the molecule `C[Si](C)(C)OC1(C#N)CCCCCC1`, in [1], the midpoint of inhibition, the IC50, lay at 510 µM.

`NCC(O)C1CCCCCCCC1` (stereo unspecified) returned an IC50 in data set [1] of 6 µM. Against the preceding molecule, the IC50 is about 85-fold lower.

Turning to `O=CC12CC3CC(CC(C3)C1)C2`, the 50% inhibitory concentration (IC50) in data set [1] worked out at 195 µM.

Turning to `CCCCCCC(C)=O`, in data set [1], the midpoint of inhibition, the IC50, lay at 664 µM.

In data set [1], `CCC(C)C(C)C=O` (stereo unspecified) came in with a half-maximal inhibitory concentration (IC50) of 403 µM.

In data set [1], `CCCCCC(C#N)O[Si](C)(C)C` (stereo unspecified) had an IC50 of 314 µM.

In data set [1], `CCCCC=O` [PENTANAL] had a concentration for half-maximal inhibition (IC50) of 345 µM.

As to `O=CC1CCCC1` [CYCLOPENTANECARBALDEHYDE], the 50% inhibitory concentration (IC50) in data set [1] came out at 446 µM. This IC50 and that of the molecule before are within 1.5-fold of each other.

`CCCCCC(C)(C#N)O[Si](C)(C)C` (stereo unspecified): in data set [1], half-maximal inhibition (IC50) was put at 669 µM.

B1: Phenylethanolamine N-methyltransferase (Bos taurus), P10938 (protein)
chain: MSGTDRSQAAGAVPDSDPGLAAVSSAYQRFEPRAYLRNNYAPPRGDLSCPDGVGPWKLRCLAQTFATGEVSGRTLIDIGSGPTIYQLLSACAHFEDITMTDFLEVNRQELRLWLREEPGAFDWSVYSQHVCLIEGKGESWQEKECQLRARVKRILPIDVHRPQPLGAGGLAPLPADALVSAFCLEAVSPDLASFQRALDHITTLLRPGGHLLLIGALEESWYLAGEARLAVVPVREEEVREALVRTATRCGICARTPMPAHLQTGVDDVKGIFFTRAQKKVGV
As for B1, the Michaelis constant (Km) in data set [2] worked out at 110 µM; in data set [3] it was 57 µM; in data set [4] it was 40 µM; in data set [5], 430 µM; in data set [6], 128 µM; in data set [7], 155 µM. The values for the Michaelis constant (Km) in [8] and in [9] were 26 µM and 136 µM, respectively.
